Our source for the Ki values is patent publication US7514417B2 (CV Therapeutics, Inc., priority 2005, dated 2009).

SMILES strings stand for the structures. pKi: −log10 of the molar value.

The target in the experiment is T1, A1 adenosine receptor (Mesocricetus auratus, UniProt A0A1U8BVR4).
T1 construct: A1 adenosine receptor sites on the membranes of DDT cells; endogenous in cells; host or cells: DDT cells (DDT1, hamster vas deferens smooth muscle cell line), membrane preparation
T1 sequence (A0A1U8BVR4 1-326): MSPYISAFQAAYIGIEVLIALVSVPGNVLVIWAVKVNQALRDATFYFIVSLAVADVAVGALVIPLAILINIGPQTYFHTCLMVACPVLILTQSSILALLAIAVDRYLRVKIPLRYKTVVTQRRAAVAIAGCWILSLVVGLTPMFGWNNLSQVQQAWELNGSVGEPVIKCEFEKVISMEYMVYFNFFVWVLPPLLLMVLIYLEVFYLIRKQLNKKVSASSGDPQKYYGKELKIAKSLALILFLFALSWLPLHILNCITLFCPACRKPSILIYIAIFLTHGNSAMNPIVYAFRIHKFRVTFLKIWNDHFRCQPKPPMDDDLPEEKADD
Put plainly: Competitive radioligand binding assay, A1 binding affinity, DDT1 cell membranes. Set-up: species or system hamster. The note with it: membranes of DDT cells, tritiated radioligand (3H-CPA) 1.5 nM, 23° C. 90 minutes. The procedure: DDT cells (hamster vas deferens smooth muscle cell line) were grown as monolayers in petri dishes using Dulbecco's Modified Eagle's Medium (DMEM) containing 2.5 μg mL^−1 amphotericin B, 100 U mL^−1 penicillin G, 0.1 mg mL^−1 streptomycin sulfate and 5% fetal bovine serum in a humidified atmosphere of 95% air and 5% CO2. Cells were subcultured twice weekly by dispersion in Hank's Balanced Salt Solution (HBSS) without the divalent cations and containing 1 mM EDTA. The cells were then seeded in growth medium at a density of 1.2×10^5 cells per plate and experiments were performed 4 days later at approximately one day preconfluence.
Attached cells were washed twice with HBSS (2×10 mL), scraped free of the plate with the aid of a rubber policeman in 5 mL of 50 mM Tris-HCl buffer pH 7.4 at 4° C. and the suspension was homogenized for 10 s. The suspension was then centrifuged at 27,000×g for 10 min. The pellet was resuspended in homogenization buffer by vortexing and centrifuged again as described above. The final pellet was resuspended in 1 vol of 50 mM Tris-HCl buffer pH 7.4 containing 5 mM MgCl2 for A1 adenosine receptor assays. For the [^35S]GTPγS binding assay the final pellet was resuspended in 50 mM Tris-HCl pH 7.4 containing 5 mM MgCl2, 100 mM NaCl and 1 mM dithiothreitol. This membrane suspension was then placed in liquid nitrogen for 10 min and stored at −80° C. Aliquots of the membrane suspension were later thawed and used for assays. The protein content was determined with a Bradford™ Assay Kit using bovine serum albumin as standard.
Briefly, 50-70 ug of membrane protein were incubated in a mixture containing 2U/ml adenosine deaminase and 10 μM GTP-γS in 50 mM Tris-HCl buffer, pH 7.4, with 1 mM EDTA in glass tubes. Stock solutions of the compounds of the invention were serially diluted (10^−10M to 10^−4M) in Tris buffer and added to the incubation mixture. […] After incubation at 23° C. 90 minutes, the reaction was stopped by filtration on a Brandel MR24 cell harvester and washing with ice-cold Tris-EDTA buffer (three times, approximate volume 10 ml/wash) over Whatman GF/B filters (presoaked for 1 h in 0.3% polyethylenimine to reduce non-specific binding). Filters were transferred to scintillation vials and 5 ml of Scintisafe (VWR, Brisbane, Calif.) was added. The amount of radioactivity retained on the filters was determined by liquid scintillation spectrometry.
Compound `CCNC(=O)[C@H]1O[C@@H](n2cnc3c(N[C@@H]4CCOC4)nc(-n4cc(-c5ccc6ccccc6n5)cn4)nc32)[C@H](O)[C@@H]1O` had a pKi of 7.13.
The figure for `Cc1cc(C)n(-c2nc(NC3CCCC3)c3ncn(C4O[C@H](CO)[C@@H](O)[C@H]4O)c3n2)n1` (stereo partly shown) [listing 1 of 2 here] is 6.87.
The figure for `CCNC(=O)[C@H]1O[C@@H](n2cnc3c(N[C@@H]4CCOC4)nc(-n4cc(-c5ccncc5)cn4)nc32)[C@H](O)[C@@H]1O` is 5.97; for `Cc1ccc(-c2cnn(-c3nc(N[C@@H]4CCOC4)c4ncn([C@@H]5O[C@H](C(=O)O)[C@@H](O)[C@H]5O)c4n3)c2)cc1` it is 6.92.
The figure for `Cc1cc(C)n(-c2nc(NC3CCCC3)c3ncn(C4O[C@H](CO)[C@@H](O)[C@H]4O)c3n2)n1` (stereo partly shown) [listing 2 of 2 here] is 7.03.
Compound `CCOC(=O)c1cnn(-c2nc(NC3CCCC3)c3ncn([C@@H]4O[C@H](CO)[C@@H](O)[C@H]4O)c3n2)c1` (single isomer, unassigned) [XXV] showed a pKi of 9.05.
For the compound `O=C(NCc1cc(F)cc(C(F)(F)F)c1)c1cnn(-c2nc(N[C@@H]3CCOC3)c3ncn([C@@H]4O[C@H](CO)C(O)C4O)c3n2)c1` (stereo in doubt) [XXI, (1-{6-[((3R)oxolan-3-yl)amino]-9-[(3S,2R,4R,5R)-3,4-dihydroxy-5-(hydroxymethyl)oxolan-2-yl]purin-2-yl}pyrazol-4-yl)-N-{[5-fluoro-3-(trifluoromethyl)phenyl]methyl}carboxamide], the pKi was 7.25.
In turn, `CCOC(=O)c1cnn(-c2nc(NC3CCCC3)c3ncn([C@@H]4O[C@H](CO)[C@@H](O)[C@H]4O)c3n2)c1` [III, ethyl 1-{9-[(4S,3R,5R)-3,4-dihydroxy-5-(hydroxymethyl)oxolan-2-yl]-6-(cyclopentylamino)purin-2-yl}pyrazole-4-carboxylate] gave a pKi of 7.44.
Consider `CCNC(=O)[C@H]1O[C@@H](n2cnc3c(NC4CCOC4)nc(-n4cc(-c5ccc(C)cc5)cn4)nc32)[C@H](O)[C@@H]1O` (stereo partly shown) [I], for which the negative logarithm of the Ki (pKi) is 5.70.
For the compound `CCNC(=O)c1cnn(-c2nc(N[C@@H]3CCOC3)c3ncn([C@@H]4O[C@H](CO)[C@@H](O)[C@H]4O)c3n2)c1` [XI, (1-{6-[((3R)oxolan-3-yl)amino]-9-[(4S,2R,3R,5R)-3,4-dihydroxy-5-(hydroxymethyl)oxolan-2-yl]purin-2-yl}pyrazol-4-yl)-N-ethylcarboxamide], the pKi is 8.00. This pKi is 2.30 log units higher than that of the compound before.
With `CCOC(=O)c1cnn(-c2nc(NCc3ccccc3)c3ncn([C@@H]4O[C@H](CO)[C@@H](O)[C@H]4O)c3n2)c1` [XII, ethyl 1-{9-[(4S,2R,3R,5R)-3,4-dihydroxy-5-(hydroxymethyl)oxolan-2-yl]-6-[benzylamino]purin-2-yl}pyrazole-4-carboxylate] the figure was 5.76; with `CCCNC(=O)c1cnn(-c2nc(N[C@@H]3CCOC3)c3ncn([C@@H]4O[C@H](CO)[C@@H](O)[C@H]4O)c3n2)c1` [XIII, (1-{6-[((3R)oxolan-3-yl)amino]-9-[(4S,2R,3R,5R)-3,4-dihydroxy-5-(hydroxymethyl)oxolan-2-yl]purin-2-yl}pyrazol-4-yl)-N-propylcarboxamide], 8.00; with `CCCNC(=O)c1cnn(-c2nc(NCc3ccccc3)c3ncn([C@@H]4O[C@H](CO)[C@@H](O)[C@H]4O)c3n2)c1` [XIV, (1-{9-[(4S,2R,3R,5R)-3,4-dihydroxy-5-(hydroxymethyl)oxolan-2-yl]-6-[benzylamino]purin-2-yl}pyrazol-4-yl)-N-propylcarboxamide], 5.96.
The figure for `O=C(NCc1ccc(F)cc1)c1cnn(-c2nc(N[C@@H]3CCOC3)c3ncn([C@@H]4O[C@H](CO)[C@@H](O)[C@H]4O)c3n2)c1` [XIX, (1-{6-[((3R)oxolan-3-yl)amino]-9-[(4S,2R,3R,5R)-3,4-dihydroxy-5-(hydroxymethyl)oxolan-2-yl]purin-2-yl}pyrazol-4-yl)-N-[(4-fluorophenyl)methyl] carboxamide] is 7.37.
`CCNC(=O)c1cnn(-c2nc(NCc3ccccc3)c3ncn([C@@H]4O[C@H](CO)[C@@H](O)[C@H]4O)c3n2)c1` [XV, (1-{9-[(4S,2R,3R,5R)-3,4-dihydroxy-5-(hydroxymethyl)oxolan-2-yl]-6-[benzylamino]purin-2-yl}pyrazol-4-yl)-N-ethylcarboxamide] had a pKi of 5.82.
Compound `CNC(=O)c1cnn(-c2nc(NCc3ccccc3)c3ncn([C@@H]4O[C@H](CO)[C@@H](O)[C@H]4O)c3n2)c1` [XVI, (1-{9-[(4S,2R,3R,5R)-3,4-dihydroxy-5-(hydroxymethyl)oxolan-2-yl]-6-[benzylamino]purin-2-yl}pyrazol-4-yl)-N-methylcarboxamide] showed a negative logarithm of the Ki (pKi) of 5.75.
The figure for `O=C(O)c1ccc(-c2cnn(-c3nc(N[C@@H]4CCOC4)c4ncn(C5OC(CO)C(O)C5O)c4n3)c2)nc1` (stereo partly drawn) [XVII, 6-(1-{6-[((3R)oxolan-3-yl)amino]-9-[3,4-dihydroxy-5-(hydroxymethyl)oxolan-2-yl]purin-2-yl}pyrazol-4-yl)pyridine-3-carboxylic acid] is 7.19; for `O=C(NCc1ccc(Cl)cc1)c1cnn(-c2nc(N[C@@H]3CCOC3)c3ncn([C@@H]4O[C@H](CO)[C@@H](O)[C@H]4O)c3n2)c1` [XVIII, (1-{6-[((3R)oxolan-3-yl)amino]-9-[(4S,2R,3R,5R)-3,4-dihydroxy-5-(hydroxymethyl)oxolan-2-yl]purin-2-yl}pyrazol-4-yl)-N-[(4-chlorophenyl)methyl]carboxamide] it is 7.57.
`O=C(NCc1ccccc1)c1cnn(-c2nc(N[C@@H]3CCOC3)c3ncn([C@@H]4O[C@H](CO)[C@@H](O)[C@H]4O)c3n2)c1` [XX, (1-{6-[((3R)oxolan-3-yl)amino]-9-[(4S,2R,3R,5R)-3,4-dihydroxy-5-(hydroxymethyl)oxolan-2-yl]purin-2-yl}pyrazol-4-yl)-N-benzylcarboxamide]: the pKi is 9.00.
The figure for `COC(=O)c1ccc(CNC(=O)c2cnn(-c3nc(N[C@@H]4CCOC4)c4ncn([C@@H]5O[C@H](CO)[C@@H](O)[C@H]5O)c4n3)c2)cc1` [XXIX, methyl 4-{[(1-{6-[((3R)oxolan-3-yl)amino]-9-[(4S,2R,3R,5R)-3,4-dihydroxy-5-(hydroxymethyl)oxolan-2-yl]purin-2-yl}pyrazol-4-yl)carbonylamino]methyl}benzoate] is 8.22; for `O=C(O)c1ccc(CNC(=O)c2cnn(-c3nc(N[C@@H]4CCOC4)c4ncn([C@@H]5O[C@H](CO)[C@@H](O)[C@H]5O)c4n3)c2)cc1` [XXX, 4-{[(1-{6-[((3R)oxolan-3-yl)amino]-9-[(4S,2R,3R,5R)-3,4-dihydroxy-5-(hydroxymethyl)oxolan-2-yl]purin-2-yl}pyrazol-4-yl)carbonylamino]methyl}benzoic acid] it is 8.10; for `O=C(O)c1cnn(-c2nc(NC3CCCC3)c3ncn([C@@H]4O[C@H](CO)[C@@H](O)[C@H]4O)c3n2)c1` [XXXI, 1-{9-[(4S,3R,5R)-3,4-dihydroxy-5-(hydroxymethyl)oxolan-2-yl]-6-(cyclopentylamino)purin-2-yl}pyrazole-4-carboxylic acid] it is 8.10.
With `NC(=O)c1cnn(-c2nc(NC3CCCC3)c3ncn([C@@H]4O[C@H](CO)[C@@H](O)[C@H]4O)c3n2)c1` [XXXII, 1-(9-[(4S,3R,5R)-3,4-dihydroxy-5-(hydroxymethyl)oxolan-2-yl]-6-(cyclopentylamino)purin-2-yl}pyrazole-4-carboxamide] the figure was 9.23; with `CCOC(=O)c1cnn(-c2nc(NC3CC4CCC3C4)c3ncn(C4O[C@H](CO)[C@@H](O)[C@H]4O)c3n2)c1` (stereo partly drawn) [XXXIII, ethyl 1-{9-[(4S,3R,5R)-3,4-dihydroxy-5-(hydroxymethyl)oxolan-2-yl]-6-(bicyclo[2.2.1]hept-2-ylamino)purin-2-yl}pyrazole-4-carboxylate], 8.70.
`O=C(O)c1cnn(-c2nc(NC3CC4CCC3C4)c3ncn(C4O[C@H](CO)[C@@H](O)[C@H]4O)c3n2)c1` (stereo partly drawn) [XXXIV, 1-{9-[(4S,3R,5R)-3,4-dihydroxy-5-(hydroxymethyl)oxolan-2-yl]-6-(bicyclo[2.2.1]hept-2-ylamino)purin-2-yl}pyrazole-4-carboxylic acid]: the pKi was 9.00.

For orientation: pKi means −log10 of the Ki, conventionally taken in molar units. Lower therefore signals a large Ki.
